# Target: T1, Smo (Mus musculus, UniProt P56726)
# T1 construct: endogenous in cells; host or cells: NIH-3T3 cells stably carrying the Gli luciferase reporter
# Test: Gli reporter luciferase assay in NIH-3T3/Gli reporter cells stimulated with mouse Shh-N end fragment
# Assay type: cell-based
# Conditions: NIH3T3, 1 μM compound, mouse Shh-N end fragment supernatant, 48 hr, luciferase activity, control without compound as 100, read-out: inhibitory rate (%) at 1 μM
# Procedure: Gli reporter plasmid was constructed by inserting 8× Gli-binding site and chicken δ-crystalline promoter into the upstream of luc+ of pGL3 (Promega).
# HEK293 cells were grown in D-MEM medium (Invitrogen) containing 10% fetal bovine serum in a 10 cm dish and pcDNA3.1/mShh-N was introduced into the cells using FuGENE6 (Roche Applied Science). Thereafter, the HEK293 cells were cultured in a carbon dioxide gas incubator at 37° C. for 24 hours, and the medium was exchanged with D-MEM medium (Invitrogen) containing 2% fetal bovine serum. After culturing for 48 hr, a culture supernatant containing recombinant type mouse Shh-N end fragment was obtained by filtration using a filter ([…]).
# Using D-MEM (Invitrogen) containing 10% fetal bovine serum, expression plasmid pcDNA3.1 and Gli reporter plasmid (pGL3/δ-cry promoter, 8× Gli binding site) produced by the method of Experimental Example 1 were introduced into NIH-3T3 cells grown in a 10 cm dish by the use of FuGENE6 (Roche Applied Science).
# After culture for 24 hr, the cells were recovered, suspended in D-MEM medium containing 10% fetal bovine serum and supplemented with Geneticin (Life Technologies Oriental, Inc.) to a final concentration of 500 μg/ml, diluted to 10^4 cells/ml, plated on a 96 well plate, and cultured in a carbon dioxide gas incubator at 37° C. to give Geneticin resistant transformed cell line. […]
# NIH-3T3/Gli reporter cells cultured in D-MEM (Invitrogen) containing 10% fetal bovine serum were plated in a 96 well white plate at 1×10^4 cells/well, and cultured overnight in a carbon dioxide gas incubator at 37° C. […] Bright-Glo (Promega, 50 μl) was added, and the mixture was stirred, after which luciferase activity was measured by EnVision (PerkinElmer). The inhibition rate was calculated based on the luciferase activity of the control without addition of the compound as 100.
# T1 sequence (P56726 33-793): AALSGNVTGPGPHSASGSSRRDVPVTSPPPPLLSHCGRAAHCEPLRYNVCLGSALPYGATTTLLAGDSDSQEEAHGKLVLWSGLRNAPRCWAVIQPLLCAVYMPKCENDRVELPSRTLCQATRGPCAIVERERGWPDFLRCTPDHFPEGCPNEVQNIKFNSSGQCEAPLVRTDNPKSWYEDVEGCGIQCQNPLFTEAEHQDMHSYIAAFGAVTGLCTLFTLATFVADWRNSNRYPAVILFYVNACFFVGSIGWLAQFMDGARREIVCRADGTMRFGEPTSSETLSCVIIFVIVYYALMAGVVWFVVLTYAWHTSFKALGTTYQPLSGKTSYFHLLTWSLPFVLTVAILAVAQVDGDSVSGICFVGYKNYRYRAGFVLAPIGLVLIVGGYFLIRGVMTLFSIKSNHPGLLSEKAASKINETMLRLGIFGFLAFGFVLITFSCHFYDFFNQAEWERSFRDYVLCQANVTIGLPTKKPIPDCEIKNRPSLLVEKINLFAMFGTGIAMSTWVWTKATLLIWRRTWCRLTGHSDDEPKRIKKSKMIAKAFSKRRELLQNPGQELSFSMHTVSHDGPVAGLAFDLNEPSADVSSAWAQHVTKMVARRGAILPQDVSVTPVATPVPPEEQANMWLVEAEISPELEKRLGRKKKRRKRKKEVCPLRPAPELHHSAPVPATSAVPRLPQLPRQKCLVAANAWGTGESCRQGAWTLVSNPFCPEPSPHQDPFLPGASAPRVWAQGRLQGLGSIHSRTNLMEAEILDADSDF
row,SMILES,inhibition at 1 µM
1,"CCc1c(C(=O)NC2CCN(C(=O)CO)CC2)n(C)c2cc(CC)n(CC(=O)c3ccccc3)c(=O)c12 [Example 1, 3,6-diethyl-N-[1-(hydroxyacetyl)piperidin-4-yl]-1-methyl-4-oxo-5-(2-oxo-2-phenylethyl)-4,5-dihydro-1H-pyrrolo[3,2-c]pyridine-2-carboxamide]",100%
2,"CCNc1c(C(=O)NC2CCN(C(=O)CO)CC2)n(C)c2cc(CC)n(CC(=O)c3ccccc3)c(=O)c12 [Example 32, 6-ethyl-3-(ethylamino)-N-[1-(hydroxyacetyl)piperidin-4-yl]-1-methyl-4-oxo-5-(2-oxo-2-phenylethyl)-4,5-dihydro-1H-pyrrolo[3,2-c]pyridine-2-carboxamide]",98%
3,"C=Cc1c(C(=O)NC2CCN(C(=O)CO)CC2)n(C)c2cc(CC)n(CC(=O)c3ccccc3)c(=O)c12 [Example 2, 3-ethenyl-6-ethyl-N-[1-(hydroxyacetyl)piperidin-4-yl]-1-methyl-4-oxo-5-(2-oxo-2-phenylethyl)-4,5-dihydro-1H-pyrrolo[3,2-c]pyridine-2-carboxamide]",100%

# From patent publication US8927718B2, “Fused heterocyclic ring derivative and use thereof” (Takeda Pharmaceutical Company Limited, priority 2009, dated 2015)
